Source: patent US20190328691A1, “ANTIBIOTIC THERAPY” (Boulos & Cooper Pharmaceuticals Pty Ltd, priority 2015, published 2019)
Several values for one entry are separate records, joined by “and”; a condition that tells them apart may be missing. Equal values may be shown once. Read-outs that look alike come from different tables or passages of the source.

Experiments:
[1] = system: Staphylococcus aureus (BAA-1717); assay: Checkerboard combination / MIC assay with S. aureus BAA-1717 (MRSA); assay type: cell-based
Method in brief: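 CLSI broth microdilution checkerboard in CAMHB (5×10^5 CFU/mL, 2% DMSO final). Ramizol or Chlopam was tested in 11-point two-fold series against 7-point antibiotic titrations, starting at 4× MIC.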

[2] = system: Staphylococcus aureus (ATCC 29213); assay: Checkerboard combination / MIC assay with S. aureus ATCC 29213; assay type: cell-based; details: S. aureus ATCC 29213; for MIC: Staphylococcus aureus, read-out: MIC of antibiotic alone
Method in brief: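 CLSI broth microdilution checkerboard in CAMHB, final inoculum 5×10^5 CFU/mL, 2% DMSO. Ramizol or Chlopam (11-point 2-fold) crossed with commercial antibiotics (7-point), each starting at 4× MIC; synergy assessed by FIC index (sum of MIC-in-combination/MIC-alone ratios; ≤0.5 synergy, >4 antagonism).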

- MIC of antibiotic in combination with Chlopam ([1]; Chlopam 0.001953 μg/mL, S. aureus ATCC BAA-1717): 256 µg/mL
- MIC of antibiotic in combination with Chlopam ([1]; Chlopam 0.003906 μg/mL, S. aureus ATCC BAA-1717): 256 µg/mL
- MIC of antibiotic in combination with Chlopam ([1]; Chlopam 0.0078125 μg/mL, S. aureus ATCC BAA-1717): 256 µg/mL
- MIC of antibiotic in combination with Chlopam ([1]; Chlopam 0.015625 μg/mL, S. aureus ATCC BAA-1717): 256 µg/mL
- MIC of antibiotic in combination with Chlopam ([1]; Chlopam 0.03125 μg/mL, S. aureus ATCC BAA-1717): 256 µg/mL
- MIC of antibiotic in combination with Chlopam ([1]; Chlopam 0.125 μg/mL, S. aureus ATCC BAA-1717): 128 µg/mL
- MIC of antibiotic in combination with Chlopam ([1]; Chlopam 0.5 μg/mL, S. aureus ATCC BAA-1717): 8 µg/mL
- MIC of antibiotic in combination with Ramizol ([1]; Ramizol 0.015625 μg/mL, S. aureus ATCC BAA-1717): 256 µg/mL
- MIC of antibiotic in combination with Ramizol ([1]; Ramizol 0.03125 μg/mL, S. aureus ATCC BAA-1717): 256 µg/mL
- MIC of antibiotic in combination with Ramizol ([1]; Ramizol 0.0625 μg/mL, S. aureus ATCC BAA-1717): 256 µg/mL
- MIC of antibiotic in combination with Ramizol ([1]; Ramizol 0.125 μg/mL, S. aureus ATCC BAA-1717): 128 µg/mL
- MIC of antibiotic in combination with Ramizol ([1]; Ramizol 0.25 μg/mL, S. aureus ATCC BAA-1717): 128 µg/mL
- MIC of antibiotic in combination with Ramizol ([1]; Ramizol 0.5 μg/mL, S. aureus ATCC BAA-1717): 128 µg/mL
- MIC of antibiotic in combination with Ramizol ([1]; Ramizol 1 μg/mL, S. aureus ATCC BAA-1717): 64 µg/mL
- MIC ([1]; Staphylococcus aureus, ATCC BAA-1717 / BAA-1717, Table 4, checkerboard series with Chlopam, S. aureus ATCC BAA-1717, read-out: MIC of antibiotic alone): 256 µg/mL
- MIC of antibiotic alone ([1]; Table 7, checkerboard series with Ramizol, S. aureus ATCC BAA-1717): 256 µg/mL
- MIC of antibiotic in combination with Chlopam ([2]; Chlopam 0.003906 μg/mL): 4 µg/mL
- MIC of antibiotic in combination with Chlopam ([2]; Chlopam 0.0078125 μg/mL): 4 µg/mL
- MIC of antibiotic in combination with Chlopam ([2]; Chlopam 0.015625 μg/mL): 4 µg/mL
- MIC of antibiotic in combination with Chlopam ([2]; Chlopam 0.25 μg/mL): 2 µg/mL
- MIC of antibiotic in combination with Chlopam ([2]; Chlopam 0.5 μg/mL): 0.125 µg/mL
- MIC of antibiotic in combination with Ramizol ([2]; Ramizol 0.015625 μg/mL): 4 µg/mL
- MIC of antibiotic in combination with Ramizol ([2]; Ramizol 0.03125 μg/mL): 4 µg/mL
- MIC of antibiotic in combination with Ramizol ([2]; Ramizol 0.0625 μg/mL): 4 µg/mL
- MIC of antibiotic in combination with Ramizol ([2]; Ramizol 0.125 μg/mL): 4 µg/mL
- MIC of antibiotic in combination with Ramizol ([2]; Ramizol 1 μg/mL): 2 µg/mL
- MIC of antibiotic in combination with Ramizol ([2]; Ramizol 2 μg/mL): 1 µg/mL
- MIC of antibiotic in combination with Ramizol ([2]; Ramizol 4 μg/mL): 0.125 µg/mL
- MIC ([2]; ATCC29213, Table 4, checkerboard series with Chlopam): 4 µg/mL
- MIC ([2]; ATCC29213, Table 7, checkerboard series with Ramizol): 4 µg/mL
Compound: CO/N=C(\C(=O)N[C@@H]1C(=O)N2C(C(=O)[O-])=C(C[N+]3(C)CCCC3)CS[C@H]12)c1csc(N)n1 [Cefepime]
- FICI of combination with Chlopam ([1]; Chlopam 0.001953 μg/mL + labelled antibiotic at MIC of same cell, S. aureus ATCC BAA-1717): 1.0
- FICI of combination with Chlopam ([1]; Chlopam 0.003906 μg/mL + labelled antibiotic at MIC of same cell, S. aureus ATCC BAA-1717): 1.0
- FICI of combination with Chlopam ([1]; Chlopam 0.0078125 μg/mL + labelled antibiotic at MIC of same cell, S. aureus ATCC BAA-1717): 1.0
- FICI of combination with Chlopam ([1]; Chlopam 0.015625 μg/mL + labelled antibiotic at MIC of same cell, S. aureus ATCC BAA-1717): 1.0
- FICI of combination with Chlopam ([1]; Chlopam 0.03125 μg/mL + labelled antibiotic at MIC of same cell, S. aureus ATCC BAA-1717): 1.0
- FICI of combination with Chlopam ([1]; Chlopam 0.125 μg/mL + labelled antibiotic at MIC of same cell, S. aureus ATCC BAA-1717): 0.6
- FICI of combination with Chlopam ([1]; Chlopam 0.5 μg/mL + labelled antibiotic at MIC of same line, S. aureus ATCC BAA-1717): 0.5
- Effect of individual antibiotic combinations of lower concentrations ([1]; Chlopam and Cefepime: 0.25 and 64, 0.25 and 32, 0.25 and 16, 0.50 and 8 μg/mL, S. aureus ATCC BAA-1717): synergistic effect
- FICI of combination with Ramizol ([1]; Ramizol 0.015625 μg/mL + labelled antibiotic at MIC of same cell, S. aureus ATCC BAA-1717): 1.0
- FICI of combination with Ramizol ([1]; Ramizol 0.03125 μg/mL + labelled antibiotic at MIC of same cell, S. aureus ATCC BAA-1717): 1.0
- FICI of combination with Ramizol ([1]; Ramizol 0.0625 μg/mL + labelled antibiotic at MIC of same cell, S. aureus ATCC BAA-1717): 1.0
- FICI of combination with Ramizol ([1]; Ramizol 0.125 μg/mL + labelled antibiotic at MIC of same line, S. aureus ATCC BAA-1717): 0.5
- FICI of combination with Ramizol ([1]; Ramizol 0.25 μg/mL + labelled antibiotic at MIC of same cell, S. aureus ATCC BAA-1717): 0.6
- FICI of combination with Ramizol ([1]; Ramizol 0.5 μg/mL + labelled antibiotic at MIC of same cell, S. aureus ATCC BAA-1717): 0.6
- FICI of combination with Ramizol ([1]; Ramizol 1 μg/mL + labelled antibiotic at MIC of same line, S. aureus ATCC BAA-1717): 0.5
- FICI of combination with Ramizol ([1]; Ramizol 2 μg/mL + labelled antibiotic at MIC of same line, S. aureus ATCC BAA-1717): 0.5 and 0.6
- Effect of individual antibiotic combinations of lower concentrations ([1]; Ramizol and Cefepime: 0.125 and 128, 1 and 64, 2 and 8 μg/mL, S. aureus ATCC BAA-1717): synergistic effect
- Effect of the combinations with Chlopam (by mean FICI) ([1]; labelled antibiotic + Chlopam, S. aureus BAA-1717): additive effect
- mean FICI of combination with Chlopam ([1]; labelled antibiotic + Chlopam, mean of all pairwise combinations, S. aureus ATCC BAA-1717): 0.8
- Effect of the combinations with Ramizol (by mean FICI) ([1]; labelled antibiotic + Ramizol, S. aureus BAA-1717): additive effect
- mean FICI of combination with Ramizol ([1]; labelled antibiotic + Ramizol, mean of all pairwise combinations, S. aureus ATCC BAA-1717): 0.696
- FICI of combination with Chlopam ([2]; Chlopam 0.003906 μg/mL + labelled antibiotic at MIC of same cell): 1.0
- FICI of combination with Chlopam ([2]; Chlopam 0.0078125 μg/mL + labelled antibiotic at MIC of same cell): 1.0
- FICI of combination with Chlopam ([2]; Chlopam 0.015625 μg/mL + labelled antibiotic at MIC of same cell): 1.0
- FICI of combination with Chlopam ([2]; Chlopam 0.25 μg/mL + labelled antibiotic at MIC of same cell): 1.0
- FICI of combination with Chlopam ([2]; Chlopam 0.5 μg/mL + labelled antibiotic at MIC of same cell): 1.0
- FICI of combination with Ramizol ([2]; Ramizol 0.015625 μg/mL + labelled antibiotic at MIC of same cell): 1.0
- FICI of combination with Ramizol ([2]; Ramizol 0.03125 μg/mL + labelled antibiotic at MIC of same cell): 1.0
- FICI of combination with Ramizol ([2]; Ramizol 0.0625 μg/mL + labelled antibiotic at MIC of same cell): 1.0
- FICI of combination with Ramizol ([2]; Ramizol 0.125 μg/mL + labelled antibiotic at MIC of same cell): 1.0
- FICI of combination with Ramizol ([2]; Ramizol 1 μg/mL + labelled antibiotic at MIC of same cell): 0.8
- FICI of combination with Ramizol ([2]; Ramizol 2 μg/mL + labelled antibiotic at MIC of same cell): 0.8
- FICI of combination with Ramizol ([2]; Ramizol 4 μg/mL + labelled antibiotic at MIC of same cell): 1.0
- mean FICI of combination with Chlopam ([2]; labelled antibiotic + Chlopam, mean of all pairwise combinations): 1.1
- Effect of the combinations with Ramizol (by mean FICI) ([2]; labelled antibiotic + Ramizol): additive effect
- mean FICI of combination with Ramizol ([2]; labelled antibiotic + Ramizol, mean of all pairwise combinations): 1.0
